According to patent publication US6534282B2, “Detection of hypertension using immunoreactive metabolic products” (priority 1999, dated 2003):

Legend:
[1] = test system: anti-14,15-DHET IgG; test: Specificity of the 14,15-DHET competitive ELISA (eicosanoid panel); assay type: binding, goat; settings: for cross-reaction with anti-14,15-DHET / cross-reaction with anti-14,15-DHET (in words): 14,15-DHET ELISA; for cross-reactivity relative to 14,15-DHET: competition with 14,15-DHET for anti-14,15-DHET IgG in ELISA
Description: Synthetic 14, 15- or 8,9-DHETs were coupled to KLH using dicyclohexylcarbodiimide as previously described (25). The conjugate was used to immunize a goat and antibody titers were determined by ELISA using DHET-conjugated bovine serum albumin (BSA).
High-binding microplates were coated with protein G-purified IgG suspended in 1M carbonate, pH 9.0, (1 μg/well; 200 μl/well final volume) and then covered with paraflim. After overnight incubation at room temperature, the wells were gently washed five times with tris buffered saline (TBS), pH 7.5, containing 0.1% tween. Non-specific sites were blocked by the addition of 0.2 ml of 5% (w/v) nonfat dry milk in TBS. After two hours of incubation at room temperature, they were washed three times with TBS-tween. One μg/well of purified IgG was sufficient for quantitation of 0.5 to 100 pg/well of 14,15- or 8,9-DHETs. Samples and standards (150 μL) were added and the plates incubated for 20 minutes, after which 15 ng of the DHET-HRP conjugate was added in 50 μL of TBS. Following incubation for one hour to permit competitive binding to bound antibody, unbound material was removed by thorough washing of the wells with TBS-tween, and 150 μL of a colorimetric substrate for HRP [3,3′,5,5′ tetramethylbenzidine (TMB) and hydrogen peroxide] (Sigma Co.) was added. The plate is then incubated for 20 minutes, the reaction stopped by addition of 75 μL of 1N H2SO4, and the absorbance at 450 nm was determined using a microtiter plate reader. Under these assay conditions, the amount of color in a well is inversely proportional to the initial concentration of the sample or a standard ligand.
The specificity of the 14,15-DHET ELISA was investigated using authentic DHET and a panel of eicosanoids (Table 5) which, based on their structure, might be anticipated to compete with 14,15-DHET for binding to antibodies against 14,15-DHET. […] There was a slight cross-reaction with 8,9- and 11,12-DHET (3.3% for both).
A listing of the panel of eicosanoids used to analyze the specificity of the 14,15-DHET ELISA. These eicosanoids were selected based on the similarity of their structure to 14,15-DHET, as being anticipated to potentially compete with 14,15-DHET for binding to anti-14,15-DHET and thus interfere with such assays.

[2] = test system: AA epoxygenase; test: AA oxygenase activity assay of hepatic microsomes using 14C AA, from treated rats; assay type: in vivo, rat; settings: hepatic microsomes of rats treated i.p. 10 mg/kg/d for 4 days; incubation 10 min
Description: (§1) Male and female Sprague-Dawley (SD) rats (160-200 g) were purchased from Charles River Laboratories (Wilmington, Mass.) and housed in a controlled environment and fed standard laboratory chow for at least 3 days before use.
Microsomes were prepared from rat livers and kidneys as described previously (27,28). Microsomes were stored at −80° C. in 50 mM Tris acetate buffer, pH 7.4, containing 1 mM EDTA and 20% glycerol until use.
After incubation of the microsomes (1 mg protein/ml, final concentration), 0.05 M Tris-HCl buffer, pH 7.5, containing 0.15 m KCl, 10 mM MgC12, 8 mM sodium isocitrate and 0.5 IU of isocitrate dehydrogenase and, incubated with ^14C AA (1 μCi/μmol, 100 μM, final concentration) in the presence of 1 mM NADPH at 30° C. The reaction products were taken at five and ten minutes and extracted into ethyl ether containing 0.05% acetic acid. The AA oxygenase metabolites were separated by HPLC and quantitated by a radiomatic Flo-One β-detector.
The reaction products were taken at 5 and 10 min. and extracted into ethyl ether containing 0.05% acetic acid). The AA oxygenase metabolites were separated by HPLC and quantitated by a radiomatic Flo-One B-detector.

[3] = test system: CYP2C23; test: Western blot of hepatic microsomes for CYP2C23; assay type: in vivo, rat; settings: after 4 days of treatment, 10 mg/kg/day i.p., FIG. 4
Description: as §1
SDS-PAGE was carried out on 10% acrylamide gel. The separated proteins were electroblotted onto cellulose membrane and Western blot analyses were carried out using alkaline phosphatase system as previously described (29). Visualization of P450 bands was accomplished by incubation with a mixture of 5-bromo4-chloro-3-indolylphosphatate p-toluidine and nitrobluetetrazolium.

[4] = test system: AA epoxygenase; settings: rats; cited from earlier work

Row | Compound | cross-reactivity relative to 14,15-DHET [1] | cross-reaction with anti-14,15-DHET (in words) [1] | also measured
1 | CCCCC/C=C\CC(O)C(O)C/C=C\C/C=C\CCCC(=O)O (stereo not shown) [11,12-DHET] | 3.30% | – | cross-reaction with anti-14,15-DHET [1]: 3.3%
2 | CCCCCC=CCC=CCC(O)C(O)CC=CCCCC(=O)O (stereo not shown) [8,9-DHET, 8,9-dihydroxyeicosatrienoic acid] | 3.30% | – | cross-reaction with anti-14,15-DHET [1]: 3.3%
3 | CCCCC/C=C\C/C=C\CC1OC1C/C=C\CCCC(=O)O (stereo not shown) [8,9-EET] | 0.40% | did not cross-react | –
4 | CCCCC/C=C\C/C=C\C/C=C\CC1OC1CCCC(=O)O (stereo not shown) [5,6-EET] | 0.02% | did not cross-react | –
5 | CCCCC[C@H](O)/C=C/[C@@H]1[C@@H](C/C=C\CCCC(=O)O)[C@@H](O)C[C@H]1O [PGF2α] | <0.01% | did not cross-react | –
6 | CCCCC/C=C\C/C=C\C/C=C\C/C=C\CCCC(=O)O [arachidonic acid] | 0.05% | did not cross-react | –
7 | CCCCC[C@H](O)/C=C/C=C\C/C=C\C=C\[C@@H](O)CCCC(=O)O [5(s)15(S)DiHETE] | 0.20% | did not cross-react | –
8 | CCCCC/C=C\C[C@H]1O[C@H]1C/C=C\C/C=C\CCCC(=O)O [11,12-EET] | 0.05% | did not cross-react | –
9 | C[C@@H]1C[C@H]2[C@@H]3CCC4=CC(=O)C=C[C@]4(C)[C@@]3(F)[C@@H](O)C[C@]2(C)[C@@]1(O)C(=O)CO [DEX, dexamethasone] | – | – | 11,12-EET formed [2]: 73 ng EET formed/mg protein; 14,15-EET formed [2]: 97 ng EET formed/mg protein; hepatic CYP2C23 protein level [3]: decreased dramatically
10 | CCCCCC1OC1C/C=C\C/C=C\C/C=C\CCCC(=O)O (stereo not shown) [14,15-EET] | 1.50% | did not cross-react | –
11 | CCCCC[C@H](O)/C=C/[C@@H]1[C@@H](CC(=O)CCCCC(=O)O)[C@@H](O)C[C@H]1O [6-keto-PGF1α] | <0.01% | did not cross-react | –
12 | CCCCC[C@H](O)/C=C/[C@H]1OC(O)C[C@H](O)[C@@H]1C/C=C\CCCC(=O)O (stereo partly shown) [Thromboxane B2] | 0.02% | did not cross-react | –
13 | Clc1ccccc1C(c1ccccc1)(c1ccccc1)n1ccnc1 [clotrimazole] | – | – | blood pressure effect [4]: induced salt-sensitive and clotrimazoledependent hypertension; urinary excretion of Na+, EETs and DHETs [4]: decreased
14 | CCCCCC(O)C(O)CC=CCC=CCC=CCCCC(=O)O (stereo not shown) [14,15-DHET, 14,15-dihydroxyeicosatrienoic acid] | 100.00% | – | –
15 | CCCCC[C@H](O)/C=C/C=C\C/C=C\C/C=C\CCCC(=O)O [15(S)HETE] | 1.00% | did not cross-react | –
16 | CCCCC/C=C\C/C=C\C/C=C\CC(O)C(O)CCCC(=O)O (stereo not shown) [5,6-DHET] | 0.02% | did not cross-react | –
17 | CCCCC[C@H](O)/C=C/[C@H]1[C@H](O)CC(=O)[C@@H]1C/C=C\CCCC(=O)O [PGE2] | <0.01% | did not cross-react | –
